Results from PMC9783573, “Introduction of a SiFA Moiety into the D-Glutamate Chain of DOTA-PP-F11N Results in Radiohybrid-Based CCK-2R-Targeted Compounds with Improved Pharmacokinetics In Vivo” (Pharmaceuticals, 2022).
Non-standard residues stand in square brackets, D forms with d. Residues, ends and D or L forms follow the SMILES beside them. *: point of attachment. X1 = O=C(O)CN1CCN(CC(=O)O)CCN([C@H](CCC(=O)*)C(=O)O)CCN(CC(=O)O)CC1; Benzoyl(4-SiFtBu2) = CC(C)(C)[Si](F)(c1ccc(C(=O)*)cc1)C(C)(C)C; Nle = CCCC[C@H](N)C(=O)O; dDap = NC[C@@H](N)C(=O)O

Key:
[1] = molecular target: T1, CCK-2R (Rattus norvegicus, UniProt P30553); test: CCK-2R-mediated internalisation and total cell uptake on AR42J cells; assay type: cell-based; details: for Total cell uptake (%) / Internalisation Values (%): % of applied activity, AR42J cells, 37 °C, 0.25 pmol/well; for Internalisation Values (%): corrected for non-specific binding; for Internalisation Values (% of reference): % of the reference [177Lu]Lu-DOTA-PP-F11N
T1 construct: CCK-2R expressing rat pancreatic cancer cells AR42J (CLS GmbH, Eppelheim,; host or cells: AR42J rat pancreatic cancer cells
T1 sequence (P30553 1-452): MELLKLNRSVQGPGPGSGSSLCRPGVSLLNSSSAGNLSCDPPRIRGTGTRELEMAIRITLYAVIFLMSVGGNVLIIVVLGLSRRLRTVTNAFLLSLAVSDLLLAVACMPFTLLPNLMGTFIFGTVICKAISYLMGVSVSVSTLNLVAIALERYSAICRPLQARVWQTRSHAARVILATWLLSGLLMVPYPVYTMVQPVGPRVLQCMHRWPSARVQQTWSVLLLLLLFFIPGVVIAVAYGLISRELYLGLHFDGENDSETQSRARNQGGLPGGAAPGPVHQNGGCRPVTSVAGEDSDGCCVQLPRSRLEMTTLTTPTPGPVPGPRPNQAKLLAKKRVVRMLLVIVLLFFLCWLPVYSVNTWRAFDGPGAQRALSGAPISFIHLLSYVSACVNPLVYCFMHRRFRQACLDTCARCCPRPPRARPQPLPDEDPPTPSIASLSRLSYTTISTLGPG
Description: Figure 3 (a) CCK-2R-mediated internalisation ([…]) on AR42J cells as percent (%) of the applied activity (incubation at 37 °C for 1, 2, 4 and 6 h, RPMI 1640, 5 mM L-Gln, 5 mL non-essential amino acids (100×), 10% FCS + 5% BSA (v/v), 3.0 × 10^5 cells/mL/well). (b) CCK-2R mediated internalisation (% of the reference [^177Lu]Lu-DOTA-PP-F11N) of [^177Lu]Lu-CP04 (grey), [^177Lu]Lu-(R)-DOTAGA-rhCCK-9 (red) and [^177Lu]Lu-(R)-DOTAGA-rhCCK-16 (green) after incubation for 6 h.
Internalisation studies of the ^177Lu-labelled conjugates (0.3 pmol) were performed on AR42J cells (3.0 × 10^5 cells per 1 mL/well) at 37 °C for 1, 2, 4 and 6 h (n = 3). Data were corrected for non-specific binding (competition by 10^−4 M [^natLu]Lu-DOTA-PP-F11N).
Cell Culture. CCK-2R expressing rat pancreatic cancer cells AR42J (CLS GmbH, Eppelheim, Germany) were cultivated in monolayers in CELLSTAR ® cell culture flasks acquired from Greiner Bio-One GmbH (Frickenhausen, Germany) at 37 °C in a humidified atmosphere (5% CO2) using a HERAcell 150i-Incubator (Thermo Fisher Scientific Inc., Waltham, United States). As nutrient medium RPMI 1640 medium, supplemented with 5 mM L-Gln 5 mL non-essential amino acids (100×) and 10% FCS, was used. Furthermore, a Dulbecco’s PBS solution with 0.1% EDTA (v/v) was applied to detach the cells for cell passaging. The detached cells were counted using a Neubauer hemocytometer ( Paul Marienfeld, Lauda-Königshofen, Germany). In addition, all operations under sterile conditions were accomplished using a MSC-Advantage safety workbench (Thermo Fisher Scientific Inc., Waltham, United States). […]
Internalisation Studies. For the determination of the internalisation kinetics of the various peptides, AR42J cells (3.0 × 10^5 cells/well) were seeded into polylysine coated 24-well plates adding 1 mL of nutrient medium. Afterwards, the cells were incubated for 24 ± 2 h at 37 °C in a humidified atmosphere […]
On the day of the experiment, the medium was removed, and each well was washed with nutrient medium (300 µL). Afterwards 200 µL of nutrient medium, 25 µL of the 177Lu-labeled peptide (0.3 pmol, n = 6) and either 25 µL of nutrient medium for internali sation studies (n = 3) or 25 µL of [natLu]Lu-DOTA-PP-F11N ([…]) for competition studies (n = 3) were added. Thereafter, the assay was incubated for various time points (1, 2, 4and 6 h) at 37 °C in a humidified atmosphere (5% CO2). After incubation, the cells were put on ice for at least 1 min to stop internalisation kinetics and the supernatant was collected. Then, the cells were washed with an ice-cold nutrient medium (300 µL) and both fractions were unified. For the acid wash, 300 µL of an ice-cold glycine buffer ([…] lysis of the cells with NaOH (300 μL, 1 N) for 15 min, the respective wells were washed with NaOH (300 μL, 1 N) and both fractions were unified. The radioactivity of the supernatant, the acid wash and the lysed fractions were quantified using a γ-counter.

[2] = tested on: AR42J tumour-bearing CB17-SCID mice; test: Biodistribution at 24 h p.i. in AR42J tumour-bearing CB17-SCID mice; assay type: in vivo; details: vs [177Lu]Lu-DOTA-PP-F11N
Description: Figure 4 Biodistribution of the reference compound, [^177Lu]Lu-DOTA-PP-F11N (blue), the α-linked [^177Lu]Lu-(R)-DOTAGA-rhCCK-9 (red) and the γ-linked [^177Lu]Lu-(R)-DOTAGA-rhCCK-16 (green) in selected organs (%ID/g) at 24 h p.i. in AR42J tumour-bearing CB17-SCID mice (100 pmol each, n = 4). Data is expressed as mean ± SD.
All animal experiments were conducted in accordance with general animal welfare regulations in Germany (German animal protection act, in the edition of the announcement, dated 18 May 2006, as amended by Article 280 of 19 June 2020, approval no. ROB-55.2-1-2532.Vet_02-18-109 by the General Administration of Upper Bavaria) and the institutional guidelines for the care and use of animals. CB17-SCID mice of both genders and aged 2–12 months (Charles River Laboratories International Inc., Sulzfeld, Germany) were allowed to acclimate at the in-house animal facility for at least one week prior to tumour cell inoculation was performed. Tumour xenografts were generated using AR42J cells (5.0 × 10^6 cells per 200 µL) suspended in a 1/1 mixture (v/v) of RPMI 1640 medium and Cultrex® Basement Membrane Matrix Type 3 (Trevigen, Gaithersburg, MD, USA). This suspension was inoculated subcutaneously onto the right shoulder and animals were used when tumour volume was >100 mm^3 (1–2 week after inoculation). Exclusion criteria for animals from an experiment were either weight loss higher than 20%, a tumour size above 1500 mm^3, an ulceration of the tumour, respiratory distress or a change of behaviour. None of these criteria applied to any animal from the experiment. Neither randomisation nor blinding was applied in the allocation of the experiments. Health status is SPF according to FELASA.
For biodistribution studies, the ^177Lu-labelled compound (approx. 2–3 MBq, 100 pmol) was injected into a lateral tail vein (n = 4) of anesthetised (2% isoflurane) AR42J tumour-bearing CB-17-SCID mice. At 24 h post-injection (p.i.), the mice were euthanised. Thereafter, the pertinent organs were removed, weighed and measured using a γ-counter.

SMILES	Total cell uptake (%) ([1]; 1 h)	Internalisation Values (%) ([1]; 1 h)	Total cell uptake (%) ([1]; 2 h)	Internalisation Values (%) ([1]; 2 h)	Total cell uptake (%) ([1]; 4 h)	Internalisation Values (%) ([1]; 4 h)	Total cell uptake (%) ([1]; 6 h)	Internalisation Values (%) ([1]; 6 h)	Internalisation Values (% of reference) ([1]; 6 h)	fold higher activity levels in the tumour than the reference ligand [2]
CCCC[C@H](NC(=O)[C@H](Cc1c[nH]c2ccccc12)NC(=O)CNC(=O)[C@H](Cc1ccc(O)cc1)NC(=O)[C@H](C)NC(=O)[C@@H](CCC(=O)O)NC(=O)[C@@H](CCC(=O)O)NC(=O)[C@@H](CCC(=O)O)NC(=O)[C@@H](CCC(=O)O)NC(=O)[C@@H](CCC(=O)O)NC(=O)[C@@H](CCC(=O)O)NC(=O)[C@@H](CCC(=O)O)NC(=O)[C@@H](CCC(=O)O)NC(=O)[C@@H](CNC(=O)c1ccc([Si](F)(C(C)(C)C)C(C)(C)C)cc1)NC(=O)CC[C@H](C(=O)O)N1CCN(CC(=O)O)CCN(CC(=O)O)CCN(CC(=O)O)CC1)C(=O)N[C@@H](CC(=O)O)C(=O)N[C@@H](Cc1ccccc1)C(N)=O [[nat/177Lu]Lu-(R)-DOTAGA-rhCCK-9, metal not drawn] (X1-[dDap](Benzoyl(4-SiFtBu2))[dE][dE][dE][dE][dE][dE][dE][dE]AYGW[Nle]DF-NH2)	2.25 ± 0.23%	2.08 ± 0.12%	3.46 ± 0.56%	3.44 ± 0.55%	8.31 ± 0.59%	8.01 ± 0.53%	13.4 ± 0.7%	13.2 ± 0.5%	65.7 ± 2.5 % of reference	3 fold
CCCC[C@H](NC(=O)[C@H](Cc1c[nH]c2ccccc12)NC(=O)CNC(=O)[C@H](Cc1ccc(O)cc1)NC(=O)[C@H](C)NC(=O)CC[C@@H](NC(=O)CC[C@@H](NC(=O)CC[C@@H](NC(=O)CC[C@@H](NC(=O)CC[C@@H](NC(=O)CC[C@@H](NC(=O)[C@@H](CNC(=O)c1ccc([Si](F)(C(C)(C)C)C(C)(C)C)cc1)NC(=O)CC[C@H](C(=O)O)N1CCN(CC(=O)O)CCN(CC(=O)O)CCN(CC(=O)O)CC1)C(=O)O)C(=O)O)C(=O)O)C(=O)O)C(=O)O)C(=O)O)C(=O)N[C@@H](CC(=O)O)C(=O)N[C@@H](Cc1ccccc1)C(N)=O [[nat/177Lu]Lu-(R)-DOTAGA-rhCCK-16, metal not drawn]	8.37 ± 0.07%	7.63 ± 0.13%	14.4 ± 1.3%	14.0 ± 1.3%	23.6 ± 2.8%	23.2 ± 2.7%	32.8 ± 2.3%	32.2 ± 2.1%	135 ± 9 % of reference	8 fold
CSCC[C@H](NC(=O)[C@H](Cc1c[nH]c2ccccc12)NC(=O)CNC(=O)[C@H](Cc1ccc(O)cc1)NC(=O)[C@H](C)NC(=O)[C@@H](CCC(=O)O)NC(=O)[C@@H](CCC(=O)O)NC(=O)[C@@H](CCC(=O)O)NC(=O)[C@@H](CCC(=O)O)NC(=O)[C@@H](CCC(=O)O)NC(=O)[C@@H](CCC(=O)O)NC(=O)CN1CCN(CC(=O)O)CCN(CC(=O)O)CCN(CC(=O)O)CC1)C(=O)N[C@@H](CC(=O)O)C(=O)N[C@@H](Cc1ccccc1)C(N)=O [[nat/177Lu]Lu-CP04, metal not drawn, reference compound]	6.00 ± 0.42%	5.16 ± 0.44%	10.0 ± 0.4%	9.33 ± 0.36%	16.5 ± 0.9%	15.4 ± 0.7%		20.5 ± 0.5%	91.6 ± 2.4 % of reference	
CCCC[C@H](NC(=O)[C@H](Cc1c[nH]c2ccccc12)NC(=O)CNC(=O)[C@H](Cc1ccc(O)cc1)NC(=O)[C@H](C)NC(=O)[C@@H](CCC(=O)O)NC(=O)[C@@H](CCC(=O)O)NC(=O)[C@@H](CCC(=O)O)NC(=O)[C@@H](CCC(=O)O)NC(=O)[C@@H](CCC(=O)O)NC(=O)[C@@H](CCC(=O)O)NC(=O)CN1CCN(CC(=O)O)CCN(CC(=O)O)CCN(CC(=O)O)CC1)C(=O)N[C@@H](CC(=O)O)C(=O)N[C@@H](Cc1ccccc1)C(N)=O [[nat/177Lu]Lu-DOTA-PP-F11N, metal not drawn, reference compound]	7.03 ± 1.45%	6.44 ± 0.32%	10.6 ± 1.5%	10.1 ± 0.4%	18.5 ± 2.5%	17.5 ± 1.0%	23.5 ± 1.4%	22.4 ± 0.6%		
